Literature values, collected in patent US11129837B2, “Salicylate compound composition” (Innovate Pharmaceuticals Limited, priority 2014, dated 2021).

Columns and labels:
cancer = conditions: daily aspirin
colorectal cancer = conditions: daily ingestion over an 8-10 year period, at any dose
rat stomachs = conditions: for effect on PGE2: given either orally or subcutaneously
[1] = human patients
[2] = tested on: PGE2 synthesis in C6 cells; conditions: high and low dose
[3] = tested on: malignant glioblastoma RG2 cells; conditions: administered the day before tumour cell inoculation and in established tumours
glioma stem cells = conditions: versus normal glial cells or neural stem cells

Row | SMILES | apoptosis (A172 glioblastoma cells) | reduction of cancer mortality (cancer) | reduction of CRC-associated mortality (colorectal cancer) | reduction of the risk of colorectal cancer (colorectal cancer) | effect on PGE2 (rat stomachs) | gastric damage (rat stomachs; given orally or subcutaneously) | maximum tolerated dose [1] | PGE2 synthesis [2] | growth of RG2 glioblastoma cells in rat [3] | growth of glioma stem cells in culture (glioma stem cells)
1 | CC(=O)Oc1ccccc1C(=O)O [aspirin, 2-(acetoxy)benzoic acid] | induced significant apoptosis | around 20% | 35% | 24% | decrease PGE2 | only caused damage when given orally | about 4 g | directly inhibited PGE2 synthesis | significantly inhibited the growth | 
2 | COc1ccc2c(c1)c(CC(=O)O)c(C)n2C(=O)c1ccc(Cl)cc1 [Indomethacin] |  |  |  |  | decrease PGE2 |  |  |  |  | 
3 | CC(=O)OCC(COC(C)=O)OC(C)=O [Glycerin triacetate, 1,3-Diacetyloxypropan-2-yl acetate] |  |  |  |  |  |  |  |  |  | slowing the growth
